From patent publication US11091479B2, “Triazolopyridin-3-ones or their salts and pharmaceutical compositions comprising the same” (YUHAN CORPORATION, priority 2018, dated 2021)
Where a name gives a salt, the structure may show the parent alone.

Experiments:
Assay type in all cases: biochemical
[1] = target: T1, recombinant human DAO (diamine oxidase) (Homo sapiens, UniProt P19801); experiment: Activity on recombinant human DAO, method similar to VAP-1 assay, 1 mM putrescine substrate; conditions: read-out: Inhibitory Activity (IC50, nM) DAO
T1 construct: purchased R&D systems
T1 sequence (P19801 20-751): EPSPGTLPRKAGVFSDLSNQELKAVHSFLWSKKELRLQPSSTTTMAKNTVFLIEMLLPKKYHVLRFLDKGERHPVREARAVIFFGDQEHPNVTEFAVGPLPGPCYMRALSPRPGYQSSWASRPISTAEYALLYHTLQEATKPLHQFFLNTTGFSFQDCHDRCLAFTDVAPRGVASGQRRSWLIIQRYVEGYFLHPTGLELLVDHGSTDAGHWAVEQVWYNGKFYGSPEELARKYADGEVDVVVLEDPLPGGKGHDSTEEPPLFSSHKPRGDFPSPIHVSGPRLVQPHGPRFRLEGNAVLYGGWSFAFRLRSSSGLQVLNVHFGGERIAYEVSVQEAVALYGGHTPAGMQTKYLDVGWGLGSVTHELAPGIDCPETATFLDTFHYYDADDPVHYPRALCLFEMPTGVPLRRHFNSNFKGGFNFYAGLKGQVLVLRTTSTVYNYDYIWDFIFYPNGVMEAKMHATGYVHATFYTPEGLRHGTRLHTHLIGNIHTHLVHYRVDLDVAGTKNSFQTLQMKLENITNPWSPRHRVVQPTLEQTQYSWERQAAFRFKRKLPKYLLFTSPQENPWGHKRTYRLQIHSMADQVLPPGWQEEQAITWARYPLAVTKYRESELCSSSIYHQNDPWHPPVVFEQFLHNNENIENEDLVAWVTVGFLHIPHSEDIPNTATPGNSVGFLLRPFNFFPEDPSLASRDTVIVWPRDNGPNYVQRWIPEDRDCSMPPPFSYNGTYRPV
Protocol: (§1) The compounds according to the present technology were evaluated in terms of activity on recombinant human VAP-1 (R&D systems) by measuring the level of hydrogen peroxide in horseradish peroxidase (HRP)-coupled reaction using Amplex Red Hydrogen Peroxide Assay Kit (Molecular Probes, Invitrogen, USA). The experiment was carried out at room temperature using benzylamine as a substrate. In the HRP-coupled reaction, hydrogen peroxide oxidation of 10-acetyl-3,7-dihydroxyphenoxazine (Amplex Red reagent) produces resorufin, which is a highly fluorescent compound. Briefly, the test compound was dissolved in dimethyl sulfoxide (DMSO) at a concentration of 20 mM. The dose-response assessment was made by 1:3 serial dilution in DMSO, thereby creating a 8 point curve. The concentration of the upper part was controlled according to the efficacy of the compounds, followed by dilution with a reaction buffer solution to obtain a final DMSO concentration of less than 1%. To each well of a 96 black well plate, human VAP-1 purified in 50 mM sodium phosphate buffer solution (pH7.4) was added. The test compounds dissolved in DMSO were incubated with the human VAP-1 enzymes at 37° C. for 30 minutes. After 30-minute incubation, each well was added with a reaction mixture containing 200 uM Amplex Red reagent prepared from 50 mM sodium phosphate buffer solution (pH 7.4), 1 mM benzylamine, and 1 U/mL HRP. Fluorescence intensity was measured at several time points during 1-2 hours using a microplate reader (Flexstation3, Molecular Devices) under the wavelength condition exciting at 544 nm and reading the emission at 590 nm. The inhibitory effect of the compounds was measured as a decrease (%) in the signal rate as compared to the control group without any inhibitor (only diluted DMSO). Data was fixed to a logistic model with four variables and IC50 value was calculated using GraphPad Prism program.
(§2) In addition, the compounds according to the present technology were evaluated in terms of activity on a recombinant human MAO-A (monoamine oxidase-A, Sigma-Aldrich) and a recombinant human MAO-B(monoamine oxidase-B, Sigma-Aldrich) by using as substrates, 0.5 mM tyramine and 1 mM benzylamine, respectively, with a method similar to the activity evaluation method for recombinant human VAP-1. The compounds according to the present technology were also evaluated in terms of activity on a recombinant human DAO (diamine oxidase, R&D systems) by using as a substrate 1 mM putrescine with a method similar to the activity evaluation method for recombinant human VAP-1.

recombinant human VAP-1 = target: T2, recombinant human VAP-1 (Homo sapiens, UniProt Q16853); experiment: Activity on recombinant human VAP-1, HRP-coupled Amplex Red hydrogen peroxide assay, benzylamine substrate; conditions: 30 min incubation at 37° C., 1 mM benzylamine, read-out: Inhibitory Activity (IC50, nM) human VAP-1
T2 construct: purchased R&D systems
T2 sequence (Q16853 1-763): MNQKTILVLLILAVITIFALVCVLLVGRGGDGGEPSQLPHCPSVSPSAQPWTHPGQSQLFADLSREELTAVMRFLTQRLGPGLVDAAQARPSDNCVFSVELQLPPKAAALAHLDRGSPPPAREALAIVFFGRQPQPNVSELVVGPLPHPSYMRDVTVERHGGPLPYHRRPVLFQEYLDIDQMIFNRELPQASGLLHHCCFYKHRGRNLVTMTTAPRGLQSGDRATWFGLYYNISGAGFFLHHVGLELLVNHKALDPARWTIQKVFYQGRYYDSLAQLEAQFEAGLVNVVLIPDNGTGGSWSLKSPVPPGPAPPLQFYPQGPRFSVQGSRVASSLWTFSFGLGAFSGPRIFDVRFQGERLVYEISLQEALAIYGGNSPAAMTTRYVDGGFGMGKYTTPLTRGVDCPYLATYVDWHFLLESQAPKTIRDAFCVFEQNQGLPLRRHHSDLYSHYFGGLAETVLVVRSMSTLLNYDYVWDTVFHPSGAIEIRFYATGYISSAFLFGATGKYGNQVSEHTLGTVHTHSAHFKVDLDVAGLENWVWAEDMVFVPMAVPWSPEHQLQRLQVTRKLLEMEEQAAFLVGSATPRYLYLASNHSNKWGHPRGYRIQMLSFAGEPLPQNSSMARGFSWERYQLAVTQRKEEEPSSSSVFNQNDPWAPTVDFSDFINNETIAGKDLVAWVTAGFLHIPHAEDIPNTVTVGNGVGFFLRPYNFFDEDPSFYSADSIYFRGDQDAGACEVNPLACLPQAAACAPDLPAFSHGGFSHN
Protocol: as §1

[2] = target: T3, recombinant human MAO-B (monoamine oxidase-B) (Homo sapiens, UniProt P27338); experiment: Activity on recombinant human MAO-B, method similar to VAP-1 assay, 1 mM benzylamine substrate; conditions: read-out: Inhibitory Activity (IC50, nM) MAO-B
T3 construct: purchased Sigma-Aldrich
T3 sequence (P27338 1-520): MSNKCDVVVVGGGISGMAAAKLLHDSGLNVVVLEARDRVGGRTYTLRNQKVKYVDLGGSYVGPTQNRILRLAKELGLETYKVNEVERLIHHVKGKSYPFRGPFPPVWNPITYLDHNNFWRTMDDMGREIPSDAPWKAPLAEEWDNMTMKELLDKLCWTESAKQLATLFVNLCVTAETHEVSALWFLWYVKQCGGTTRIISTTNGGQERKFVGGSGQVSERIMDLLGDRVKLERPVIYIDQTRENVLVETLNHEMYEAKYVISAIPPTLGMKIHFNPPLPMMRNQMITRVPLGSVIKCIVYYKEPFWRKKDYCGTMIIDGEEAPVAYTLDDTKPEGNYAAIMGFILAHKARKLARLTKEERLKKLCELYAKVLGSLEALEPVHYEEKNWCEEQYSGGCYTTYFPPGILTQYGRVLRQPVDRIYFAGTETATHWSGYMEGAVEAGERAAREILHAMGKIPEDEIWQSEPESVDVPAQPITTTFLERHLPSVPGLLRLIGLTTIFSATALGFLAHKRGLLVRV
Protocol: as §1, §2

[3] = target: T4, recombinant human MAO-A (monoamine oxidase-A) (Homo sapiens, UniProt P21397); experiment: Activity on recombinant human MAO-A, method similar to VAP-1 assay, 0.5 mM tyramine substrate; conditions: read-out: Inhibitory Activity (IC50, nM) MAO-A
T4 construct: purchased Sigma-Aldrich
T4 sequence (P21397 1-527): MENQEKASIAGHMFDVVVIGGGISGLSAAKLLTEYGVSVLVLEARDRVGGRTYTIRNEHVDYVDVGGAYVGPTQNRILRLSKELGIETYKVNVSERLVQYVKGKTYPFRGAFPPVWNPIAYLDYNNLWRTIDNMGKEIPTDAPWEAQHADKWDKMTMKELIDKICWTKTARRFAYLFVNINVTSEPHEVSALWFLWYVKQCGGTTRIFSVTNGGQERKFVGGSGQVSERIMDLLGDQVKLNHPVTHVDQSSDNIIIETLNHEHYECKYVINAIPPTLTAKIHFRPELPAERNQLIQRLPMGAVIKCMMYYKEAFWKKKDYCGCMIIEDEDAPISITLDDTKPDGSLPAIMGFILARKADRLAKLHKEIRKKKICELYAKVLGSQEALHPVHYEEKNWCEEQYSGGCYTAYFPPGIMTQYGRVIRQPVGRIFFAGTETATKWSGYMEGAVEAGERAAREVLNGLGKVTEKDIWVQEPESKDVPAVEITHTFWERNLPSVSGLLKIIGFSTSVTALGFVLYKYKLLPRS
Protocol: as §1, §2

Row | IC50 [1] [nM] | IC50 (recombinant human VAP-1) [nM] | IC50 [2] [nM] | IC50 [3] [nM] | SMILES
1 | 100 | 0.1 | 800 | > 100000 | CS(=O)(=O)c1ccc(-c2ccn3c(=O)n(CC(CN)=C(F)F)nc3c2)cc1 [Example 48, 2-[2-(aminomethyl)-3,3-difluoro-allyl]-7-(4-methylsulfonylphenyl)-[1,2,4]triazolo[4,3-a]pyridin-3-one trifluoroacetate]
2 | 320 | 2.2 | > 100000 | > 100000 | CN1CCOc2cc(C#Cc3ccn4c(=O)n(CC(CN)=C(F)F)nc4c3)ccc21 [Example 63, 2-[2-(aminomethyl)-3,3-difluoro-allyl]-7-[2-(4-methyl-2,3-dihydro-1,4-benzoxazin-7-yl)ethynyl]-[1,2,4]triazolo[4,3-a]pyridin-3-one trifluoroacetate]
3 | 1 | 0.3 | 1400 | 5400 | NC/C(=C\F)Cn1nc2cc(-c3ccc4c(c3)NC(=O)CO4)ccn2c1=O [Example 42, 6-[2-[(2E)-2-(aminomethyl)-3-fluoroprop-2-en-1-yl]-3-oxo-2,3-dihydro[1,2,4]triazolo[4,3-a]pyridin-7-yl]-2H-1,4-benzoxazine-3 (4H)-one hydrochloride]
4 | 5.8 | 0.4 | 130 |  | NC/C(=C\F)Cn1nc2cc(-c3ccc(N4CCOCC4)nc3)ccn2c1=O [Example 33, 2-[(2E)-2-(aminomethyl)-3-fluoroprop-2-en-1-yl]-7-[6-(morpholin-4-yl)pyridin-3-yl][1,2,4]triazolo[4,3-a]pyridin-3(2H)-one hydrochloride]
5 | 4 | 0.4 | 380 | 44000 | NC/C(=C\F)Cn1nc2cc(-c3ccc(-c4noc(C5CC5)n4)cc3)ccn2c1=O [Example 29, 2-[(2E)-2-(aminomethyl)-3-fluoroprop-2-en-1-yl]-7-[4-(5-cyclopropyl-1,2,4-oxadiazol-3-yl)phenyl][1,2,4]triazolo[4,3-a]pyridin-3(2H)-one hydrochloride]
6 |  | 150 |  |  | NC/C(=C\F)Cn1nc2cccc(-c3ccc4nonc4c3)n2c1=O [Example 21, 2-[(2E)-2-(aminomethyl)-3-fluoroprop-2-en-1-yl]-5-(2,1,3-benzoxadiazol-5-yl)[1,2,4]triazolo[4,3-a]pyridin-3(2H)-one trifluoroacetate]
7 |  | 90 |  |  | CC(=O)Nc1ccc(-c2cccc3nn(C/C(=C/F)CN)c(=O)n23)cc1 [Example 18, N-[4-[2-[(2E)-2-(aminomethyl)-3-fluoroprop-2-en-1-yl]-3-oxo-2,3-dihydro[1,2,4]triazolo[4,3-a]pyridin-5-yl]phenyl]acetamide trifluoroacetate]
8 | 0.2 | 3.7 | 39 |  | NC/C(=C\F)Cn1nc2ccc(-c3ccc(N4CCOCC4)nc3)cn2c1=O [Example 11, 2-[(2E)-2-(aminomethyl)-3-fluoroprop-2-en-1-yl]-6-[6-(morpholin-4-yl)pyridin-3-yl][1,2,4]triazolo[4,3-a]pyridin-3(2H)-one hydrochloride]
9 | < 100 | 14 |  |  | CC(=O)Nc1cc(-c2ccc3nn(C/C(=C/F)CN)c(=O)n3c2)ccn1 [Example 8, N-[4-[2-[(2E)-2-(aminomethyl)-3-fluoroprop-2-en-1-yl]-3-oxo-2,3-dihydro[1,2,4]triazolo[4,3-a]pyridin-6-yl]pyridin-2-yl]acetamide trifluoroacetate]
10 |  | 38 |  |  | NC/C(=C\F)Cn1nc2cccc(-c3ccc(-c4ccon4)cc3)n2c1=O [Example 19, 2-[(2E)-2-(aminomethyl)-3-fluoroprop-2-en-1-yl]-5-[4-(1,2-oxazol-3-yl)phenyl][1,2,4]triazolo[4,3-a]pyridin-3(2H)-one trifluoroacetate]
11 | 100 | 87 |  |  | NC/C(=C\F)Cn1nc2ccc(Br)cn2c1=O [Example 1, 2-[(2E)-2-(aminomethyl)-3-fluoroprop-2-en-1-yl]-6-bromo[1,2,4]triazolo[4,3-a]pyridin-3(2H)-one hydrochloride]
12 |  | > 100 |  |  | NC/C(=C\F)Cn1nc2cccc(-c3ccc4c(c3)OCO4)n2c1=O [Example 20, 2-[(2E)-2-(aminomethyl)-3-fluoroprop-2-en-1-yl]-5-(1,3-benzodioxol-5-yl)[1,2,4]triazolo[4,3-a]pyridin-3(2H)-one trifluoroacetate]
